From US10500170B2, “Composition and method for treating neurological disease” (Osmotica Kereskedelmi és Szolgáltató Korlátolt Felelõsségû …, priority 2018, dated 2019)

What was measured:
[1] = Solubility of amantadine HCl in water; format: physicochemical; settings: 160 mg, 240 mg and 320 mg of amantadine HCl
plasma proteins = settings: concentration range of 0.1 to 2.0 μg/mL; cited from earlier work
[2] = cited from earlier work
[3] = cited from earlier work; remark: listed apart in the source

In the case of `NC12CC3CC(CC(C3)C1)C2` [Amantadine, amantadine], the Solubility in water [1] is listed as “soluble in 250 mL water”, the “bound to plasma proteins” value (plasma proteins) is listed as 67% and the “elimination half-life change in renal insufficiency” value ([2]; creatinine clearance less than 40 mL/min/1.73 m^2) is listed as “increases two to three fold or greater”. For the same compound, the elimination half-life ([2]; patients on chronic maintenance hemodialysis) was “averages eight days”, the volume of distribution ([3]; after intravenous administration) was 3 to 8 L/kg and the “reduction of renal clearance of amantadine” value ([3]; coadministration of quinine or quinidine) was “about 30%”. The “administered dose excreted unchanged in urine” value ([3]; in vivo) was “approximately 85%” and the “metabolism as share of the total clearance” value ([3]; in vivo) was 5-15%.
